Measurements taken from US20260364185A1, “Estrogen Receptor Modulator and Use Thereof” (JIANGSU VCARE PHARMATECH CO., LTD., priority 2023, published 2026).

Test system: MCF7 cells
Assay: MCF7 cell activity test (CCK8 proliferation inhibition)
Format: cell-based
Details: Homo sapiens, MCF7, 144 h, 6 days incubation
Description: Experimental Example 1: MCF7 cell activity test
Cell culture: MCF7 cells (culture conditions: MEM medium+20% FBS+1% essential amino acids++1 mg/100 ml insulin, 37° C., 5% CO2). Plating: The cells subcultured into the logarithmic growth phase were collected and transferred into a centrifuge tube, and centrifuged at 800 rpm for 5 min. The cells were resuspended in complete medium and counted. The cells were diluted and adjusted to a final concentration of 30,000 cells/mL. The cells were then seeded into a 96-well plate with 100 μL per well and incubated in an incubator overnight. Administration: Each group of drug solutions was added into the 96-well plate, 100 μL per well, n=3 for each drug concentration. Meanwhile, negative wells (n=6) and blank wells (n=3) were set up. The 96-well plate was incubated in the incubator for further 6 days. CCK8 reagent was added to the 96-well plate, 20 μL per well, and then the plate was placed in the incubator for further 4 h. The absorbance of the solution was measured at a wavelength of 450 nm using an enzyme reader. The proliferation inhibition rate was calculated and the half inhibitory concentration IC50 value was calculated using Graphpad Prism 6.0 software.

IC50 [µM] | SMILES
< 0.1 | Cn1nc(N2CCC(=O)NC2=O)c2cc(F)c(C3CCN(C[C@H]4CCCC[C@@H]4CN4CCN(c5ccc([C@@H]6c7ccc(O)cc7CC[C@@H]6c6ccccc6)cc5)CC4)CC3(F)F)cc21 (stereo in doubt) [IV-12]
< 0.1 | O=C1CCC(NC(=O)c2ccc(C3CCN(C[C@@H]4CCCC[C@H]4CN4CCN(c5ccc([C@@H]6c7ccc(O)cc7CC[C@@H]6c6ccccc6)cc5)CC4)CC3)cc2F)C(=O)N1 (stereo partly drawn) [Compound I-67, N-(2,6-dioxopiperidin-3-yl)-2-fluoro-4-(1-(((1R,2R)-2-((4-(4-((1R,2S)-6-hydroxy-2-phenyl-1,2,3,4-tetrahydronaphthalen-1-yl)phenyl)piperazin-1-yl)methyl)cyclohexyl)methyl)piperidin-4-yl)benzamide]
< 0.025 | O=C1CCC(NC(=O)c2ccc(N3CCN(C[C@@H]4CCCC[C@H]4CN4CCN(c5ccc([C@@H]6c7ccc(O)cc7CC[C@@H]6c6ccccc6)cc5)CC4)CC3)cc2F)C(=O)N1 (some centres unmarked) [Compound I-69]
< 0.1 | Cc1nc2cc(N3CCN(C[C@@H]4CCCC[C@H]4CN4CCN(c5ccc([C@@H]6c7ccc(O)cc7CC[C@@H]6c6ccccc6)cc5)CC4)CC3)ccc2n1C1CCC(=O)NC1=O (some centres unmarked) [Compound V-1]
< 0.05 | O=C1CCC(n2cnc3cc(N4CCN(C[C@@H]5CCCC[C@H]5CN5CCN(c6ccc([C@@H]7c8ccc(O)cc8CC[C@@H]7c7ccccc7)cc6)CC5)CC4)c(F)cc32)C(=O)N1 (some centres unmarked) [Compound V-2]
< 0.05 | O=C1CCC(n2cnc3cc(N4CCN(C[C@@H]5CCCC[C@H]5CN5CCN(c6ccc([C@@H]7c8ccc(O)cc8CC[C@@H]7c7ccccc7)cc6)CC5)CC4)ccc32)C(=O)N1 (some centres unmarked) [Compound V-3]
< 0.1 | O=C1CCC(n2cnc3cc(C4CCN(C[C@@H]5CCCC[C@H]5CN5CCN(c6ccc([C@@H]7c8ccc(O)cc8CC[C@@H]7c7ccccc7)cc6)CC5)CC4)c(F)cc32)C(=O)N1 (some centres unmarked) [Compound V-5]
< 0.1 | O=C1CCC(n2cnc3cc(C4CCN(C[C@@H]5CCCC[C@H]5CN5CCN(c6ccc([C@@H]7c8ccc(O)cc8CC[C@@H]7c7ccccc7)cc6)CC5)CC4)ccc32)C(=O)N1 (some centres unmarked) [Compound V-7]
< 0.025 | O=C1CCC(NC(=O)c2ccc(N3CCN(C[C@@H]4CCCC[C@H]4CN4CCN(c5ccc([C@@H]6c7ccc(O)cc7CC[C@@H]6c6ccccc6)cc5)CC4)CC3)cn2)C(=O)N1 (stereo partly drawn) [III-1, N-(2,6-dioxopiperidin-3-yl)-5-(4-(((1R,2R)-2-((4-(4-((1R,2S)-6-hydroxy-2-phenyl-1,2,3,4-tetrahydronaphthalen-1-yl)phenyl)piperazin-1-yl)methyl)cyclohexyl)methyl)piperazin-1-yl)pyridinecarboxamide]
< 0.1 | O=C1CCC(NC(=O)c2ccc(N3CCN(C[C@H]4CCCC[C@@H]4CN4CCN(c5ccc([C@@H]6c7ccc(O)cc7CC[C@@H]6c6ccccc6)cc5)CC4)CC3)cn2)C(=O)N1 (stereo partly drawn) [III-2, N-(2,6-dioxopiperidin-3-yl)-5-(4-(((1S,2S)-2-((4-(4-((1R,2S)-6-hydroxy-2-phenyl-1,2,3,4-tetrahydronaphthalen-1-yl)phenyl)piperazin-1-yl)methyl)cyclohexyl)methyl)piperazin-1-yl)pyridinecarboxamide]
< 0.1 | O=C1CCC(NC(=O)c2ccc(C3CCN(C[C@@H]4CCCC[C@H]4CN4CCN(c5ccc([C@@H]6c7ccc(O)cc7CC[C@@H]6c6ccccc6)cc5)CC4)CC3)cn2)C(=O)N1 (stereo partly drawn) [III-3, N-(2,6-dioxopiperidin-3-yl)-5-(1-(((1R,2R)-2-((4-(4-((1R,2S)-6-hydroxy-2-phenyl-1,2,3,4-tetrahydronaphthalen-1-yl)phenyl)piperazin-1-yl)methyl)cyclohexyl)methyl)piperidin-4-yl)pyridinecarboxamide]
< 0.05 | Cn1nc(C2CCC(=O)NC2=O)c2cc(F)c(N3CCN(C[C@@H]4CCCC[C@H]4CN4CCN(c5ccc([C@@H]6c7ccc(O)cc7CC[C@@H]6c6ccccc6)cc5)CC4)CC3)cc21 (some centres unmarked) [IV-1]
< 0.025 | Cn1nc(C2CCC(=O)NC2=O)c2ccc(N3CCN(C[C@@H]4CCCC[C@H]4CN4CCN(c5ccc([C@@H]6c7ccc(O)cc7CC[C@@H]6c6ccccc6)cc5)CC4)CC3)cc21 (stereo partly drawn) [IV-3, 3-(6-(4-(((1R,2R)-2-((4-(4-((1R,2S)-6-hydroxy-2-phenyl-1,2,3,4-tetrahydronaphthalen-1-yl)phenyl)piperazin-1-yl)methyl)cyclohexyl)methyl)piperazin-1-yl)-1-methyl-1H-indazol-3-yl)piperidine-2,6-dione]
< 0.1 | Cn1nc(C2CCC(=O)NC2=O)c2ccc(N3CCN(C[C@H]4CCCC[C@@H]4CN4CCN(c5ccc([C@@H]6c7ccc(O)cc7CC[C@@H]6c6ccccc6)cc5)CC4)CC3)cc21 (stereo partly drawn) [IV-4, 3-(6-(4-(((1S,2S)-2-((4-(4-((1R,2S)-6-hydroxy-2-phenyl-1,2,3,4-tetrahydronaphthalen-1-yl)phenyl)piperazin-1-yl)methyl)cyclohexyl)methyl)piperazin-1-yl)-1-methyl-1H-indazol-3-yl)piperidine-2,6-dione]
< 0.025 | Cn1nc(N2CCC(=O)NC2=O)c2cc(F)c(N3CCN(C[C@@H]4CCCC[C@H]4CN4CCN(c5ccc([C@@H]6c7ccc(O)cc7CC[C@@H]6c6ccccc6)cc5)CC4)CC3)cc21 [IV-5]
< 0.05 | Cn1nc(C2CCC(=O)NC2=O)c2cc(F)c(C3CCN(C[C@H]4CCCC[C@@H]4CN4CCN(c5ccc([C@@H]6c7ccc(O)cc7CC[C@@H]6c6ccccc6)cc5)CC4)CC3)cc21 (stereo partly drawn) [IV-10, 3-(5-fluoro-6-(1-(((1S,2S)-2-((4-(4-((1R,2S)-6-hydroxy-2-phenyl-1,2,3,4-tetrahydronaphthalen-1-yl)phenyl)piperazin-1-yl)methyl)cyclohexyl)methyl)piperidin-4-yl)-1-methyl-1H-indazol-3-yl)piperidin-2,6-dione]

IC50 [µM] | SMILES
< 0.05 | O=C1CCC(n2ncc3cc(N4CCN(C[C@@H]5CCCC[C@H]5CN5CCN(c6ccc([C@@H]7c8ccc(O)cc8CC[C@@H]7c7ccccc7)cc6)CC5)CC4)c(F)cc32)C(=O)N1 (some centres unmarked) [VI-5]
< 0.1 | O=C1CCC(n2ncc3cc(N4CCN(C[C@@H]5CCCC[C@H]5CN5CCN(c6ccc([C@@H]7c8ccc(O)cc8CC[C@@H]7c7ccccc7)cc6)CC5)CC4)ccc32)C(=O)N1 (some centres unmarked) [VI-6]
< 0.05 | Cc1nn(C2CCC(=O)NC2=O)c2ccc(C3CCN(C[C@@H]4CCCC[C@H]4CN4CCN(c5ccc([C@@H]6c7ccc(O)cc7CC[C@@H]6c6ccccc6)cc5)CC4)CC3)cc12 (some centres unmarked) [VI-8]
< 0.1 | Cc1nn(C2CCC(=O)NC2=O)c2cc(F)c(C3CCN(C[C@@H]4CCCC[C@H]4CN4CCN(c5ccc([C@@H]6c7ccc(O)cc7CC[C@@H]6c6ccccc6)cc5)CC4)CC3)cc12 (some centres unmarked) [VI-9]
< 0.025 | Cn1nc(N2CCC(=O)NC2=O)c2cc(F)c(C3CC4CCC(C3)N4C[C@@H]3CCCC[C@H]3CN3CCN(c4ccc([C@@H]5c6ccc(O)cc6CC[C@@H]5c5ccccc5)cc4)CC3)cc21 (some centres unmarked) [VI-17]
< 0.025 | Cn1nc(N2CCC(=O)NC2=O)c2cc(F)c(C3CCN(C[C@@H]4CCCC[C@H]4CN4CCN(c5ccc([C@@H]6c7ccc(O)cc7CC[C@@H]6c6ccccc6)cc5)CC4)C4(CC4)C3)cc21 (some centres unmarked) [VI-18]
< 0.05 | Cn1nc(N2CCC(=O)NC2=O)c2cc(F)c(C3CCN(C4CCN(C[C@@H]5CCCC[C@H]5CN5CCN(c6ccc([C@@H]7c8ccc(O)cc8CC[C@@H]7c7ccccc7)cc6)CC5)CC4)CC3)cc21 [VI-19]
< 0.025 | C[C@@H]1CC(c2cc3c(cc2F)c(N2CCC(=O)NC2=O)nn3C)CCN1C[C@@H]1CCCC[C@H]1CN1CCN(c2ccc([C@@H]3c4ccc(O)cc4CC[C@@H]3c3ccccc3)cc2)CC1 (some centres unmarked) [VI-20]
< 0.05 | C[C@H]1CC(c2cc3c(cc2F)c(N2CCC(=O)NC2=O)nn3C)CCN1C[C@@H]1CCCC[C@H]1CN1CCN(c2ccc([C@@H]3c4ccc(O)cc4CC[C@@H]3c3ccccc3)cc2)CC1 (some centres unmarked) [VI-21]
< 0.05 | C[C@@H]1CC(c2cc3c(cc2F)c(N2CCC(=O)NC2=O)nn3C)C[C@H](C)N1C[C@@H]1CCCC[C@H]1CN1CCN(c2ccc([C@@H]3c4ccc(O)cc4CC[C@@H]3c3ccccc3)cc2)CC1 (some centres unmarked) [VI-22]
< 0.025 | Cn1nc(N2CCC(=O)NC2=O)c2cc(F)c(C3CCC(N4CCN(C[C@@H]5CCCC[C@H]5CN5CCN(c6ccc([C@@H]7c8ccc(O)cc8CC[C@@H]7c7ccccc7)cc6)CC5)CC4)CC3)cc21 (some centres unmarked) [VI-24]
< 0.1 | Cn1nc(N2CCC(=O)NC2=O)c2cc(F)c(C3CCC(N(C[C@@H]4CCCC[C@H]4CN4CCN(c5ccc([C@@H]6c7ccc(O)cc7CC[C@@H]6c6ccccc6)cc5)CC4)C4CC4)CC3)cc21 (some centres unmarked) [VI-25]
< 0.05 | Cn1nc(N2CCC(=O)NC2=O)c2cc(F)c(N3CC4(CN(C[C@@H]5CCCC[C@H]5CN5CCN(c6ccc([C@@H]7c8ccc(O)cc8CC[C@@H]7c7ccccc7)cc6)CC5)C4)C3)cc21 [VI-26]
< 0.025 | Cn1nc(N2CCC(=O)NC2=O)c2cc(F)c(N3CC4(CCN(C[C@@H]5CCCC[C@H]5CN5CCN(c6ccc([C@@H]7c8ccc(O)cc8CC[C@@H]7c7ccccc7)cc6)CC5)CC4)C3)cc21 [VI-27]
< 0.025 | COC1(c2cc3c(cc2F)c(N2CCC(=O)NC2=O)nn3C)CCN(C[C@@H]2CCCC[C@H]2CN2CCN(c3ccc([C@@H]4c5ccc(O)cc5CC[C@@H]4c4ccccc4)cc3)CC2)CC1 [VI-28]
< 0.025 | C[C@@H]1CC(O)(c2cc3c(cc2F)c(N2CCC(=O)NC2=O)nn3C)CCN1C[C@@H]1CCCC[C@H]1CN1CCN(c2ccc([C@@H]3c4ccc(O)cc4CC[C@@H]3c3ccccc3)cc2)CC1 (stereo partly drawn) [VI-29, 1-(5-fluoro-6-((2R)-4-hydroxy-1-(((1R, 2R)-2-((4-(4-((1R, 2S)-6-hydroxy-2-phenyl-1,2,3,4-tetrahydronaphthalen-1-yl)phenyl)piperazin-1-yl)methyl)cyclohexyl)methyl)-2-methylpiperidin-4-yl)-1-methyl-1H-indazol-3-yl)dihydropyrimidine-2,4 (1H,3H)-dione]
